Measured values from patent US20210275606A1, “COMPOSITIONS COMPRISING BACTERIAL STRAINS” (4D Pharma Research Limited, priority 2018, published 2021).
Where “and” joins values, the source holds several entries; their conditions need not be identical. Equal entries are not always repeated. Structures can show the parent of a compound that is named as a salt.

Assays:
[1] = tested on: DSS-induced colitis mouse model; experiment: DSS-induced colitis mouse model, ileum histology; assay type: in vivo; set-up: key to Erosion (epithelial cell damage) / Depletion of goblet cells / Edema / Leucocytes Infiltration: 0: None; Minimal <10%; Mild 10-25%; 3: Moderate 26-50%; 4: Marked >50%; COLITIS SCORING (sum) / COLITIS SCORING mean ± SEM: scale not given here; conditions: Day 7; for COLITIS SCORING mean ± SEM: group mean, n = 9, 3% DSS; for Depletion of goblet cells / Edema / Erosion (epithelial cell damage) / Leucocytes Infiltration: ileum histology score 0-4, individual mouse; for COLITIS SCORING (sum): sum of the four ileum histology scores, individual mouse
Method: The objective of this study was to determine the prophylactic efficacy of R. intestinalis strain 43043 in a DSS-induced colitis mouse model, upon repeated oral administration.
Tacrolimus was dosed at 1 mg/kg/day
Valproic acid was dosed at 200 mg/kg/day
PBS, YCFA and bacterial cultures were dosed at 200 μL/day
Each of sixty three, 6 week old healthy male C57BL/6J mice were obtained from Charles River (France) and individually identified and labelled with a specific code. Each treatment group (9 animals/group) were housed in three different cages.
Days −7 to Day −1: Treatment with bacteria and reference substances according the treatment table above • Once daily oral administration of PBS, YCF A or Bacteria—200 μL per mouse • Once daily oral administration of Valproic acid at 200 mg/kg/day under a volume of 10 mL/kg From Day O to Day+7: DSS administration • Administration of 3% DSS in the drinking water From Day O to Day+6: Treatment with bacteria and reference substances • Once daily oral administration of PBS, YCFA or Bacteria—200 μL per mouse • Once daily oral administration of Valproic acid—200 mg/kg in sterile distilled water—10 mL/kg • Once daily SC administration of Tacrolimus—1 mg/kg in sterile 1% Tween80, 0.9% NaCl—10 mL/kg Day+7: Sacrifice of all groups and tissue harvesting • Euthanasia of animals was performed under gas anesthesia (Isoflurane) followed by exsanguination and cervical dislocation. Euthanasia methods used are those recommended for mice and rats by European directive 20 I 0/63/CE and the procedure describing euthanasia methods was approved by IACUC. • Laparotomy and ileum harvesting, just upstream of the caecum (from 0.5 cm and on)—all tissue harvested from exactly the same area between all mice: • 1.5 cm swiss-rolled ileum was harvested for histology, the closest to the caecum
Ileum Swiss-rolls specimens were embedded in paraffin and sections of 5 μm thickness were cut and mounted on SuperFrost Ultra plus glass slides. HP (Hematoxylin-Phloxin) staining & AB-PAS (Alcian Blue-Periodic Acid Schiff) staining were performed to visualize histomorphologic changes. A scoring based on edema, erosion, loss of crypts/goblet cells and infiltrates was established on each animal, using the criteria in the following table: […]

HDAC [2] = experiment: Global HDAC activity analysis in HT-29 cells; assay type: cell-based; conditions: for inhibition of total HDAC activity: whole HT-29 cells and HT-29 cell lysate tested, sentence does not say which
Method: Pure cultures of 43043 bacteria were grown anaerobically in YCFA broth until they reached their stationary growth phase. Cultures were centrifuged at 5,000×g for 5 minutes and the cell-free supernatant (CFS) was filtered using a 0.2 μM filter (Millipore, UK). 1 mL aliquots of the CFS were stored at −80° C. until use. Sodium butyrate, hexanoic and valeric acid were obtained from Sigma Aldrich (UK) and suspensions were prepared in YCFA broth.
(§1) Whole cells and cell free supernatants of stationary phase 43043 cultures were isolated by centrifugation and filtering in a 0.22 uM filter. HT-29 cells were used 3 days' post confluence and stepped down in 1 mL DTS 24 hours prior to commencement of the experiment. The HT-29 cells were challenged with 10% cell free supernatant diluted in DTS and this was left to incubate for 48 hours. […] were then extracted using the Sigma Aldrich Nuclease extraction kit and samples were snap frozen prior to HDAC activity measurement. HDAC activity kit was assessed fluorometrically using the Sigma Aldrich (UK) kit.
(§2) To investigate which metabolites were responsible for the strain-induced HDAC inhibition, different concentrations of hexanoic acid, valeric acid and sodium butyrate were measured for their HDAC inhibition on whole HT-29 cells and on HT-29 cell lysate.

HDAC [3] = experiment: HDAC inhibition on HT-29 cell lysate; assay type: biochemical
Method: as §1, §2

[4] = tested on: graft versus host disease (GVHD) induced in Balb/C mice; experiment: Graft versus host disease (GVHD) induced in Balb/C mice; assay type: in vivo, mouse; conditions: for mean body weight over the course of the study: compared with Group 4 (PBS, TBI + allogeneic transfer), daily dosing Days -14 to 30
From the text: Male Balb/C mice (BALB/cAnNCrl; 6-8 weeks old; n=125) with an average starting body weight (±SEM) of 20.67±0.11 g were obtained from Charles River Laboratories (Wilmington, Mass.). An additional n=75 male C57Bl/6 (C57Bl/6NCrl; 6-8 weeks old) were obtained from the same vendor. Animals were acclimatized prior to study commencement. During this period, the animals were observed daily in order to reject any that presented in poor condition.
Animals were randomized into 5 groups at the start of the study. Each group comprised between 8 and 12 mice. Each group was further sub-divided into cohorts A and B (n=4-6 mice per group per cohort); cohorts had staggered disease timelines.
All animals were weighed and randomized by weight into treatment groups prior to study start. Prior to GVHD induction on Days −1 and 0, all animals were pre-treated (P0) with PBS (Groups 1-4), bacterial strain 43043 (Group 5), or Butyrate salt control (Group 6) daily starting on Day −14. Butyrate was used as a positive control as butyrate deficit has been identified in the gut of GVHD patients. Treatments were administered to groups at random, and group treatments were alternated daily to prevent the same groups from being treated at the same time each day. Once test article dosing had begun, care was taken to minimize group cross-contamination: gloves were changed by the technician between treatment groups, and were sprayed with 70% isopropyl alcohol between each cage of the same group.
GVHD was induced in n=84 Balb/C mice (Groups 4-10) using a single acute dose of 8 Gy of total body irradiation (TBI) on Day −1. On Day 0, these recipient mice were given an intravenous injection of a combination of T cell depleted bone marrow cells and splenic cells from donor C57Bl/6 mice in PBS. Bone marrow cells were isolated using standard flushing practices, and were T cell depleted using the cell surface T cell antigen CD3, with a CD3-biotin kit (Miltenyi Biotec catalog 130-094-973). Splenocytes were isolated using Miltenyi GentleMACS Dissociators. Animals in Group 1 served as naïve controls and received neither TBI nor cell transfer. […] Animals in Group 3 served as syngeneic adoptive transfer controls; these animals received 8 Gy of TBI on Day −1, and an intravenous injection of a combination of T cell depleted bone marrow cells and splenic cells from donor Balb/C mice in sterile PBS.
Daily test article dosing continued for the duration of the study (Days −14 to 30). Animal survival was recorded daily, as an indication of GVHD severity. […] The GVHD score was assessed by a standard scoring system based on five criteria (Table 21): percentage of weight change, posture (hunching), activity, fur texture, and skin integrity (maximum score=10). […]

Compound	COLITIS SCORING mean ± SEM [1]	Depletion of goblet cells ([1]; 3% DSS)	Edema ([1]; 3% DSS)	Erosion (epithelial cell damage) ([1]; 3% DSS)	Leucocytes Infiltration ([1]; 3% DSS)	COLITIS SCORING (sum) ([1]; 3% DSS)	inhibition of total HDAC activity (HDAC [2])	mean body weight over the course of the study [4]	further results
CCCC(CCC)C(=O)O [Valproic acid, Valproic Acid]	0.67 ± 0.10	0	0	0	2 (Mild 10-25%) (2×) and 1 (Minimal <10%) (2×) and 0 (5×)	2 (2×) and 1 (2×) and 0 (5×)			
CCCC(=O)[O-].[Na+] [sodium butyrate, Sodium butyrate]									inhibition of HDAC activity (HDAC [2]; on whole HT-29 cells): significant (P<0.05) inhibition of HDAC activity; inhibition of HDAC activity (HDAC [3]): significant (P<0.05) inhibition of HDAC activity
CCCCC(=O)O [Valeric acid, valeric acid]							inhibited total HDAC activity		
CCCC(=O)O [Butyrate salt]								No significant differences in mean body weight	Mean colitis severity scores (endoscopy) ([4]; Day 29, as compared to naïve mice (Group 1)): increased; mean GVHD scores ([4]; Days 0 to 30, AUC, compared to Group 3 (syngeneic transfer), with and without scores carried forward): significantly increased mean GVHD scores as compared to Group 3
C=CC[C@@H]1/C=C(\C)C[C@H](C)C[C@H](OC)[C@H]2O[C@@](O)(C(=O)C(=O)N3CCCC[C@H]3C(=O)O[C@H](/C(C)=C/[C@@H]3CC[C@@H](O)[C@H](OC)C3)[C@H](C)[C@@H](O)CC1=O)[C@H](C)C[C@@H]2OC [Tacrolimus]	0.44 ±0.08	0	0	0	0 (6×) and 2 (Mild 10-25%) and 1 (Minimal <10%) (2×)	0 (6×) and 2 and 1 (2×)		same trend was observed	leukocyte infiltration in the ileum ([1]; group comparison in text, 3% DSS): reduced leukocyte infiltration comparable to controls
CCCCCC(=O)O [hexanoic acid]							did show significant inhibitory activity		
